{
  "source": "patent US10485808B2",
  "about": "“Selective progesterone receptor modulators (SPRM) and stabilized estrogen level in patient” (BAYER PHARMA AKTIENGESELLSCHAFT, priority 2017, dated 2019)",
  "origin": "cited, not measured here",
  "tested_on": "patients with Uterine Fibroids (UF)",
  "settings": "cited from earlier work; for Patients with moderate to severe hot flushes: 12-13 weeks of treatment; for Serum estradiol levels after treatment: after 12-13 weeks treatment",
  "note": "Like-named read-outs stand apart in the source and are kept apart here.",
  "data": [
    {"smiles": "CC(=O)O[C@]1(C(C)=O)CC[C@H]2[C@@H]3CCC4=CC(=O)CCC4=C3[C@@H](c3ccc(N(C)C)cc3)C[C@@]21C", "note": "[Ulipristal acetate]", "values": [
      {"measurement": "Patients with moderate to severe hot flushes", "setting": "5 mg/day", "result": 11, "unit": "%"},
      {"measurement": "Serum estradiol levels after treatment", "setting": "5 mg/day", "result": 64, "unit": "pg/mL"},
      {"measurement": "Amenorrhoea rate (secondary endpoint)", "setting": "5 mg/day", "result": 75, "unit": "%"},
      {"measurement": "Hot flushes of any severity", "setting": "5 mg", "result": 26, "unit": "%"},
      {"measurement": "Patients with moderate to severe hot flushes", "setting": "10 mg/day", "result": 10, "unit": "%"},
      {"measurement": "Serum estradiol levels after treatment", "setting": "10 mg/day", "result": 61, "unit": "pg/mL"},
      {"measurement": "Amenorrhoea rate (secondary endpoint)", "setting": "10 mg/day", "result": 89, "unit": "%"},
      {"measurement": "Hot flushes of any severity", "setting": "10 mg", "result": 24, "unit": "%"}
    ]}
  ]
}
